How the values were obtained:
3T3-L1 cells = assay: Expression of adipogenesis markers (immunoblotting, RT-PCR) in MDI-differentiated 3T3-L1 cells; assay type: cell-based, mouse; details: after MDI-induced differentiation
Experimental: PPARγ alone or together with CCAAT-enhancer-binding protein α (C/EBPα) regulates many adipocyte genes that are involved in creating and maintaining the adipocyte phenotype. To further analyze the effect of isoquinolinoquinazolinones on adipogenesis, the expression of the adipocyte marker genes (C/EBPα and PPARγ) was analyzed. The differentiation of 3T3-L1 cells into adipocytes was induced by incubating in MDI induction medium for 2 days followed by incubation in differentiation medium for an additional 6 days. After MDI-induced adipocyte differentiation of 3T3-L1 cells, adipogenic transcriptional factors were analyzed. The transcriptional factors C/EBPα and PPARγ were inhibited by 8n and 8o in terms of both protein (Fig. 2C,D) and RNA (Fig. 2E,F) levels.
Total cellular RNA was prepared using TRIzol reagent (Life Technologies) according to the manufacturer’s instructions. Random-primed cDNAs were synthesized from 1 μg of total RNA using Super-Script III First-Strand Synthesis System (Life Technologies). The following conditions were used for PCR: initial denaturation at 94 °C for 1 min; 28–30 cycles of denaturation at 94 °C for 30 s, annealing at a temperature optimized for each primer pair for 30 s, extension at 72 °C for 30 s; final extension at 72 °C for 5 min. […] RNA levels were quantified by image software, Multi Gauge, V3.0 (FUJIFILM).
At the end of differentiation, 3T3-L1 cells were washed with PBS and lysed in a lysis buffer (1% NP-40, 25 mM HEPES (pH 7.5), 10% glycerol, 150 mM NaCl, 25 mM NaF, 0.25% sodium deoxycholate, 1 mM EDTA, 1 mM Na3VO4, 10 μg/mL aprotinin, 10 μg/mL leupeptin, and 250 μM phenylmethanesulfonyl fluoride). […] Horseradish peroxidase-labeled secondary antibodies were detected and visualized using chemiluminescent western blotting reagent (Millipore). Protein expression levels were quantified by image software, Multi Gauge, V3.0 (FUJIFILM).

PPARγ2-LBD = molecular target: T1, PPARγ2-LBD (Mus musculus, UniProt P37238); assay: Surface plasmon resonance binding to immobilized PPARγ2-LBD; details: for Kd / kon / koff: SPR, 25 °C, PBS; for Kd: read-out: KD (equilibrium dissociation constant); for kon: read-out: ka (association rate constant); for koff: read-out: kd (dissociation rate constant)
T1 construct: mouse PPARγ2 (residues 230–505) were expressed as N-terminal GST-tagged proteins; made in house; host or cells: E. coli BL21(DE3)
T1 sequence (P37238 230-505): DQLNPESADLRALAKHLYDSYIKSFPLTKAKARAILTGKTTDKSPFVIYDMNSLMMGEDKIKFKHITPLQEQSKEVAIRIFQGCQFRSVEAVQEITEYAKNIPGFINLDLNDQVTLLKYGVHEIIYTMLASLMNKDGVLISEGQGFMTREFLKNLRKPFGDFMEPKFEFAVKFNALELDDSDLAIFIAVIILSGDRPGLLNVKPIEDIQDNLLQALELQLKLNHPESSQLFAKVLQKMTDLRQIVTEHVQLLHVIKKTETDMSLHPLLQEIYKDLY
Experimental: PPARγ2 protein was immobilized on the sensor chip, and the response (in resonance unit; RU) as a result of binding was continuously recorded and presented graphically as a function of time[25]. The association rate (ka also known as on rate (kon)), dissociation rate (kd also known as off rate (koff)), and equilibrium dissociation constant (KD) were calculated using the Scrubber 2 program (Table 2).
The recombinant ligand-binding domains (LBDs) of mouse PPARγ2 (residues 230–505) were expressed as N-terminal GST-tagged proteins using the pGEX4T3 vector. pGXE4T3-mPPARγ2-LBD plasmid was transfected into BL21(DE3) competent cells and the cells were grown in LB medium containing 50 μg/mL ampicillin at 37 °C to an O. D. 600 of 0.6–0.8. The expression of PPARγ2-LBD was induced by the addition of 0.2 mM isopropyl β-D-thiogalactoside (IPTG). After treatment for 24 h at 22 °C, the cells were harvested and disrupted using sonication buffer [25 mM HEPES (pH 7.5), 150 mM NaCl, 1% NP-40, 0.25% sodium deoxycholate, 10% glycerol, 25 mM NaF, 1 mM EDTA, 1 mM Na3VO4, 250 μM PMSF, 10 μg/mL leupeptin, and 10 μg/ml aprotinin]. The supernatant was applied to glutathione-Sepharose beads for 24 h at 4 °C. The bound GST fusion proteins were washed with the sonication buffer and eluted by elution buffer [25 mM glutathione, 50 mM Tris pH 8.8, 200 mM NaCl].
Immobilization of the protein on the hydrophilic carboxymethylated dextran matrix of the sensor chip (Reichert) was carried out using a standard primary amine coupling reaction. Free carboxyl groups on the surface were modified by injecting a mixture of 0.1 M 1-ethyl-3-(3-dimethylaminopropyl) carbodiimide hydrochloride and 0.05 M N-hydroxysuccinimide at a flow rate of 20 μL/min to generate a reactive succinimide ester surface. Baseline equilibration was achieved by flushing the chip with PBS buffer for 1–2 h. All of the SPR data was collected at 25 °C with PBS as running buffer at a constant flow of 30 μL/min. All the sensorgrams were processed by using automatic correction for nonspecific bulk refractive index effects. All the kinetic analyses of the binding to PPARγ2-LBD were calculated using the Scrubber2 program (Bio-Logic Software).

| melting point [°C] | Kd (PPARγ2-LBD) [µM] | kon (PPARγ2-LBD) [M⁻¹ s⁻¹] | koff (PPARγ2-LBD) [s⁻¹] | binding affinity relative to GW9662 (less than) (PPARγ2-LBD; ratio of KD values) [folds] | binding affinity relative to rosiglitazone (more than) (PPARγ2-LBD; ratio of KD values) [folds] | Structure (SMILES) | C/EBPα and PPARγ expression, protein and RNA levels (3T3-L1 cells) | mRNA expression of adiponectin and fatty acid synthase (FAS) (3T3-L1 cells) |
| --- | --- | --- | --- | --- | --- | --- | --- | --- |
| 193.5 to 194.6 | – | – | – | – | – | COc1cc2cc3n(c(=O)c2cc1OC)CNc1ccc(Cl)cc1-3 [Compound 8n, 2-Chloro-10,11-dimethoxy-5H-isoquinolino[2,3-c]quinazolin-8(6H)-one] | inhibited | – |
| 228.7 to 230.5 | 146 | 24 | 0.00351 | 37 | 4 | COc1cc2cc3n(c(=O)c2cc1OC)CNc1cc(Cl)ccc1-3 [Compound 8o, 3-Chloro-10,11-dimethoxy-5H-isoquinolino[2,3-c]quinazolin-8(6H)-one] | inhibited | strongly reduced |
| – | 3.91 | 15.1 | 5.9e-05 | – | – | O=C(Nc1ccccc1)c1cc([N+](=O)[O-])ccc1Cl [GW9662, reference compound] | – | – |

From PMC5046141, “Discovery of Isoquinolinoquinazolinones as a Novel Class of Potent PPARγ Antagonists with Anti-adipogenic Effects” (Scientific Reports, 2016)
